From the supplement of paper PMC10307832

Assays:
Test in all cases: relative viability (nuclei count vs DMSO), 5 days (fraction); higher = more cells survive
Selumetinib + Luminespib = compound: Cn1cnc2c(F)c(Nc3ccc(Br)cc3Cl)c(C(=O)NOCCO)cc21 [Selumetinib] + CCNC(=O)c1noc(-c2cc(C(C)C)c(O)cc2O)c1-c1ccc(CN2CCOCC2)cc1 [Luminespib] (partner 0.01 µM)
Summary of the method: (§1)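 Lung cancer cell lines, seeded in 1536-well plates, were treated the following day by pin tool with a single drug or with five library-drug doses (not always all listed) in √10 steps on top of a fixed anchor-drug dose. Cells were fixed and nuclei stained in one step after 5 days, and nuclei were counted. Relative viability is the nuclei count for treated wells divided by that for vehicle wells, reported as medians of duplicate plates.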

Venetoclax + Bortezomib = compound: CC1(C)CCC(CN2CCN(c3ccc(C(=O)NS(=O)(=O)c4ccc(NCC5CCOCC5)c([N+](=O)[O-])c4)c(Oc4cnc5[nH]ccc5c4)c3)CC2)=C(c2ccc(Cl)cc2)C1 [Venetoclax] + CC(C)C[C@H](NC(=O)[C@H](Cc1ccccc1)NC(=O)c1cnccn1)B(O)O [Bortezomib] (partner 0.002 µM)
Summary of the method: as §1

Selumetinib + Dasatinib = compound: Cn1cnc2c(F)c(Nc3ccc(Br)cc3Cl)c(C(=O)NOCCO)cc21 [Selumetinib] + Cc1nc(Nc2ncc(C(=O)Nc3c(C)cccc3Cl)s2)cc(N2CCN(CCO)CC2)n1 [Dasatinib] (partner 0.075 µM)
Summary of the method: as §1

Venetoclax + Decitabine = compound: CC1(C)CCC(CN2CCN(c3ccc(C(=O)NS(=O)(=O)c4ccc(NCC5CCOCC5)c([N+](=O)[O-])c4)c(Oc4cnc5[nH]ccc5c4)c3)CC2)=C(c2ccc(Cl)cc2)C1 [Venetoclax] + Nc1ncn([C@H]2C[C@H](O)[C@@H](CO)O2)c(=O)n1 [Decitabine] (partner 2 µM)
Summary of the method: as §1

Cell Line	relative viability (Selumetinib + Luminespib; first compound 0.02 µM)	relative viability (Selumetinib + Luminespib; first compound 0.06325 µM)	relative viability (Selumetinib + Luminespib; first compound 0.2 µM)	relative viability (Selumetinib + Luminespib; first compound 0.6325 µM)	relative viability (Venetoclax + Bortezomib; first compound 0.01 µM)	relative viability (Venetoclax + Bortezomib; first compound 0.03162 µM)	relative viability (Venetoclax + Bortezomib; first compound 0.1 µM)	relative viability (Venetoclax + Bortezomib; first compound 0.3162 µM)	relative viability (Venetoclax + Bortezomib; first compound 1 µM)	relative viability (Selumetinib + Dasatinib; first compound 0.02 µM)	relative viability (Selumetinib + Dasatinib; first compound 0.06325 µM)	relative viability (Selumetinib + Dasatinib; first compound 0.2 µM)	relative viability (Selumetinib + Dasatinib; first compound 0.6325 µM)	relative viability (Venetoclax + Decitabine; first compound 0.01 µM)	relative viability (Venetoclax + Decitabine; first compound 0.03162 µM)	relative viability (Venetoclax + Decitabine; first compound 0.1 µM)	relative viability (Venetoclax + Decitabine; first compound 0.3162 µM)	relative viability (Venetoclax + Decitabine; first compound 1 µM)
201T	1.08	1.03	0.962	0.906	1.11	1.03	1.11	1.09	1.06	0.589	0.571	0.585	0.555	0.774	0.834	0.792	0.82	0.825
A549	–	–	–	–	–	–	–	–	–	–	–	–	–	0.22	0.325	0.159	0.214	0.274
A-427	0.901	0.986	0.953	0.874	0.983	0.988	0.982	1.08	1.06	0.785	0.729	0.555	0.407	0.54	0.546	0.55	0.54	0.559
ABC-1	0.581	0.422	0.607	0.314	0.291	0.314	0.446	0.31	0.309	0.512	0.37	0.47	0.566	1.07	1.24	1.02	1.12	1.24
BEN	0.28	0.83	0.404	0.347	0.61	1.06	0.868	0.837	0.749	0.295	0.341	0.368	0.371	0.747	0.721	0.737	0.653	0.673
CAL-12T	0.322	0.365	0.284	0.362	0.976	1.14	0.954	0.901	0.877	0.363	0.258	0.285	0.258	–	–	–	–	–
COR-L23	0.644	0.637	0.721	0.409	0.91	1.06	0.982	0.98	0.896	0.462	0.488	0.488	0.47	0.458	0.478	0.444	0.454	0.39
COR-L 105	0.769	0.689	0.46	0.404	0.867	0.902	0.751	0.777	0.691	0.328	0.239	0.224	0.22	0.581	0.589	0.694	0.76	0.652
Calu-6	–	–	–	–	0.981	0.972	1.02	1.08	1.05	–	–	–	–	–	–	–	–	–
ChaGo-K-1	0.531	0.48	0.731	0.568	1.08	1.11	–	1.08	0.926	0.587	0.615	0.664	0.592	0.465	0.503	0.488	0.545	0.519
EBC-1	–	–	–	–	0.409	0.604	0.609	0.511	0.481	–	–	–	–	–	–	–	–	–
EKVX	0.931	0.587	0.657	0.665	1.04	1.05	1.04	1.14	0.842	0.469	0.567	0.371	0.276	0.33	0.327	0.317	0.392	0.35
EMC-BAC-2	1.19	1.18	1.1	1.12	1.02	1.05	0.958	1.02	1.04	0.352	0.419	0.379	0.391	0.983	0.989	0.981	1.02	0.956
EPLC-272H	0.22	0.276	0.203	0.171	–	0.957	0.852	0.872	0.947	0.294	0.297	0.355	0.174	0.391	0.378	0.328	0.371	0.445
H3255	1.04	0.918	1.05	0.87	0.784	0.855	0.626	0.825	0.644	0.41	0.358	0.329	0.344	0.657	0.582	0.496	0.635	0.597
HARA	0.708	0.783	0.536	0.168	1.14	1.13	0.937	1.12	1.1	0.28	0.288	0.247	0.271	0.62	0.633	–	0.72	0.606
HCC-15	0.199	0.19	0.158	0.0809	1.05	1.04	0.964	1	0.875	0.296	0.231	0.19	0.146	0.519	0.699	0.611	0.611	0.543
HCC-44	1.33	1.03	0.909	0.519	0.85	0.93	0.948	0.829	0.904	–	–	–	–	0.938	0.919	0.87	0.892	0.949
HCC-78	–	–	–	–	0.523	0.583	0.482	0.525	0.477	0.395	0.344	0.347	0.364	0.689	0.744	0.786	0.652	0.58
HCC-366	–	–	–	–	0.854	1.05	1.01	0.994	0.984	0.501	0.566	0.456	0.367	0.354	0.368	0.327	0.366	0.382
HCC-827	0.621	0.694	0.438	0.244	1.04	1.06	1.08	1.11	1.01	0.24	0.331	0.26	0.294	0.303	0.418	0.34	0.249	0.346
HOP-62	0.862	0.754	0.656	0.384	0.886	1.17	0.746	0.665	0.625	0.583	0.526	0.387	0.249	0.182	0.203	0.199	0.216	0.218
IA-LM	–	–	–	–	0.745	0.701	0.959	0.698	0.823	–	–	–	–	–	–	–	–	–

Cell Line	relative viability (Selumetinib + Luminespib; first compound 0.02 µM)	relative viability (Selumetinib + Luminespib; first compound 0.06325 µM)	relative viability (Selumetinib + Luminespib; first compound 0.2 µM)	relative viability (Selumetinib + Luminespib; first compound 0.6325 µM)	relative viability (Venetoclax + Bortezomib; first compound 0.01 µM)	relative viability (Venetoclax + Bortezomib; first compound 0.03162 µM)	relative viability (Venetoclax + Bortezomib; first compound 0.1 µM)	relative viability (Venetoclax + Bortezomib; first compound 0.3162 µM)	relative viability (Venetoclax + Bortezomib; first compound 1 µM)	relative viability (Selumetinib + Dasatinib; first compound 0.02 µM)	relative viability (Selumetinib + Dasatinib; first compound 0.06325 µM)	relative viability (Selumetinib + Dasatinib; first compound 0.2 µM)	relative viability (Selumetinib + Dasatinib; first compound 0.6325 µM)	relative viability (Venetoclax + Decitabine; first compound 0.01 µM)	relative viability (Venetoclax + Decitabine; first compound 0.03162 µM)	relative viability (Venetoclax + Decitabine; first compound 0.1 µM)	relative viability (Venetoclax + Decitabine; first compound 0.3162 µM)	relative viability (Venetoclax + Decitabine; first compound 1 µM)
LC-2-ad	0.912	0.882	0.88	0.83	0.834	1.02	0.968	0.907	0.94	0.724	0.501	0.427	0.559	0.858	0.778	0.785	0.78	0.765
LCLC-97TM1	0.79	0.622	0.415	0.411	–	0.99	0.609	1.02	0.403	0.866	0.674	0.543	0.272	0.242	0.236	0.238	0.204	0.222
LCLC-103H	0.922	0.876	0.831	0.697	1.02	1.04	1.16	1.09	1.1	0.524	0.505	0.568	0.491	0.767	0.713	0.733	0.752	0.788
LK-2	0.151	0.136	0.19	0.165	–	–	–	–	–	0.281	0.31	0.308	0.389	0.204	0.359	0.305	0.231	0.294
LOU-NH91	0.381	0.302	0.329	0.359	0.487	0.477	0.558	0.473	0.456	0.547	0.504	0.495	0.534	0.76	0.808	0.816	0.821	0.778
LU99A	0.246	0.259	0.202	0.201	1.13	1.32	0.925	1.19	1.23	0.58	0.643	0.509	0.6	0.758	0.957	0.831	0.803	0.858
LXF-289	0.692	0.688	0.491	0.544	1.03	0.966	1	1.01	0.87	0.223	0.315	0.324	0.311	0.35	0.37	0.385	0.387	0.4
NCI-H358	0.284	0.148	0.292	0.127	–	–	–	–	–	0.136	0.111	0.118	0.129	0.18	0.238	0.226	0.208	0.205
NCI-H522	1.1	1.14	0.887	0.759	–	–	–	–	–	1.96	0.849	0.861	0.96	0.657	0.694	0.617	0.605	0.677
NCI-H1299	–	–	–	–	1.05	1.02	0.979	0.999	0.98	–	–	–	–	–	–	–	–	–
NCI-H1395	0.575	0.713	0.643	0.694	–	–	–	–	–	0.408	0.415	0.432	0.445	0.71	0.673	0.736	0.692	0.63
NCI-H1563	0.507	0.499	0.527	0.52	0.792	0.896	0.827	0.944	0.78	0.514	0.451	0.498	0.528	–	–	–	–	–
NCI-H1623	0.41	0.352	0.394	0.41	–	–	–	–	–	0.465	0.454	0.461	0.505	–	–	–	–	–
NCI-H1648	–	–	–	–	–	–	–	–	–	–	–	–	–	–	0.487	0.418	0.634	0.491
NCI-H1703	–	–	–	–	0.306	0.313	0.21	0.397	0.374	–	–	–	–	–	–	–	–	–
NCI-H1793	0.15	0.163	0.154	0.184	–	–	–	–	–	0.393	0.375	0.296	0.294	0.301	0.58	0.521	0.45	0.49
NCI-H1944	0.907	0.59	0.48	0.445	–	–	–	–	–	0.186	0.186	0.161	0.167	0.478	0.447	0.492	0.481	0.407
NCI-H2170	0.358	0.845	0.651	0.617	–	–	–	–	–	0.533	0.515	0.48	0.412	0.442	0.46	0.431	0.451	0.473
NCI-H2228	0.154	0.14	0.125	0.193	1.04	0.99	0.972	1.21	1.19	0.428	0.454	0.405	0.39	–	–	–	–	–
NCI-H2342	0.655	0.64	0.677	0.69	–	–	–	–	–	0.362	0.32	0.37	0.293	0.777	0.735	0.713	0.764	0.693
SK-MES-1	0.74	0.559	0.344	0.375	–	–	–	–	–	0.284	0.271	0.235	0.226	0.305	0.428	0.367	0.404	0.391
SW 900	0.19	0.131	0.159	0.155	–	–	–	–	–	0.709	0.491	0.541	0.572	0.455	0.444	0.356	0.405	0.39
